Earlier results, collected in patent publication US20260199330A1, “MEDICAL METHOD AND USE” (ViiV Healthcare UK (No.3) Limited, priority 2024, published 2026).

Key:
[1] = supratherapeutic oral CAB 150 mg q12 h×3 doses, TQT study
[2] = oral 60 mg once daily for 2 years, LAI116482 (LATTE)

For `C[C@H]1CO[C@@H]2Cn3cc(C(=O)NCc4ccc(F)cc4F)c(=O)c(O)c3C(=O)N12` [Cabotegravir, (3S, 11aR)-N-((2,4-difluorophenyl)methyl)-6-hydroxy-3-methyl-5,7-dioxo-2,3,5, 11,11a-hexahydro(1,3)oxazolo(3,2-a)pyrido(1,2-d)pyrazine-8-carboxamide], the “geometric mean Cmax, short-term safety threshold” value [1] is listed as 22.5 µg/mL and the “median (steady state) Cmax, long-term safety threshold” value [2] is listed as 13.1 µg/mL.
